# Results reported in ChEMBL document CHEMBL1156502, “Stabilized immune modulatory RNA compounds as agonists of Toll-like receptors 7 and 8” (Proc Natl Acad Sci U S A, 2007).
# Activity calls are given as the source filed them. The calls are words filed in the database; no cut-off is given here.
# Experiments:
# PBMC [1] = experiment: Induction of IL12 secretion in human PBMC after 24 hrs by Luminex Multiplex assay; format: functional, cell-based
# PBMC [2] = experiment: Induction of IFNalpha secretion in human PBMC after 24 hrs by Luminex Multiplex assay; format: functional, cell-based
# PBMC [3] = experiment: Induction of IFN-gamma secretion in human PBMC after 24 hrs by Luminex Multiplex assay; format: functional, cell-based
# [4] = Stability in 1% human serum assessed as full length product after 10 mins; format: ADME, cell-free; settings: read-out: Stability
# [5] = biological target: T1, Toll-like receptor 8 (Homo sapiens) (UniProt Q9NR97); experiment: Activation of human TLR8 expressed in HEK293 cells assessed as increase in NF-kappaB activation at 100 ug/ml by SEAP assay; format: cell-based
# T1 sequence (whole entry): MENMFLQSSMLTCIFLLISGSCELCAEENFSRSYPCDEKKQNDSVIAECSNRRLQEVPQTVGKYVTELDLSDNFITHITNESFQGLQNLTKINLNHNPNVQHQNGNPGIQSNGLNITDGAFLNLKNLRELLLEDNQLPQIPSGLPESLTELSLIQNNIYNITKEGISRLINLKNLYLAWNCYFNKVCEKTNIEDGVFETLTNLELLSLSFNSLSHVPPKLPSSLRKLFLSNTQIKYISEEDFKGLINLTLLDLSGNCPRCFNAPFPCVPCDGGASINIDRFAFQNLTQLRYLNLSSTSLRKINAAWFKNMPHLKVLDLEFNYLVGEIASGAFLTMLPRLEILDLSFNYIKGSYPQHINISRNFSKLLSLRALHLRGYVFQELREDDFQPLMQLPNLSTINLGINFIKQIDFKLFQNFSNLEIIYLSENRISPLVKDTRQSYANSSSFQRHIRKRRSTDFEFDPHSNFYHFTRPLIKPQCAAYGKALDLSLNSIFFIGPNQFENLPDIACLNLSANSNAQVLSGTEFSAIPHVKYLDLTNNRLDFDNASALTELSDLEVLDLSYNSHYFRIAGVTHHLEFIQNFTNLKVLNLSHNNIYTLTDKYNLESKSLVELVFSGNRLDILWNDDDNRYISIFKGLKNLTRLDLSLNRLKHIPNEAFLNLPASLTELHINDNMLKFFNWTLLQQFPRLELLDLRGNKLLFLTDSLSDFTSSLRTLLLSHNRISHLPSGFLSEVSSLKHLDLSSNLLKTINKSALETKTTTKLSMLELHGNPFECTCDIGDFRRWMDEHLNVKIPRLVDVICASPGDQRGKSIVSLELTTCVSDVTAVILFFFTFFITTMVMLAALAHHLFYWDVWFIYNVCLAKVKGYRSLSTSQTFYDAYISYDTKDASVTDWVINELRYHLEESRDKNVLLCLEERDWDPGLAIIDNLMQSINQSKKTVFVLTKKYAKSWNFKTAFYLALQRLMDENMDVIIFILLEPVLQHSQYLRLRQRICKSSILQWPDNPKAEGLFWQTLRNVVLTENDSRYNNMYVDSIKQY
# [6] = biological target: T2, Toll-like receptor 7 (Homo sapiens) (UniProt Q9NYK1); experiment: Activation of human TLR7 expressed in HEK293 cells assessed as increase in NF-kappaB activation at 100 ug/ml by SEAP assay; format: cell-based
# T2 sequence (whole entry): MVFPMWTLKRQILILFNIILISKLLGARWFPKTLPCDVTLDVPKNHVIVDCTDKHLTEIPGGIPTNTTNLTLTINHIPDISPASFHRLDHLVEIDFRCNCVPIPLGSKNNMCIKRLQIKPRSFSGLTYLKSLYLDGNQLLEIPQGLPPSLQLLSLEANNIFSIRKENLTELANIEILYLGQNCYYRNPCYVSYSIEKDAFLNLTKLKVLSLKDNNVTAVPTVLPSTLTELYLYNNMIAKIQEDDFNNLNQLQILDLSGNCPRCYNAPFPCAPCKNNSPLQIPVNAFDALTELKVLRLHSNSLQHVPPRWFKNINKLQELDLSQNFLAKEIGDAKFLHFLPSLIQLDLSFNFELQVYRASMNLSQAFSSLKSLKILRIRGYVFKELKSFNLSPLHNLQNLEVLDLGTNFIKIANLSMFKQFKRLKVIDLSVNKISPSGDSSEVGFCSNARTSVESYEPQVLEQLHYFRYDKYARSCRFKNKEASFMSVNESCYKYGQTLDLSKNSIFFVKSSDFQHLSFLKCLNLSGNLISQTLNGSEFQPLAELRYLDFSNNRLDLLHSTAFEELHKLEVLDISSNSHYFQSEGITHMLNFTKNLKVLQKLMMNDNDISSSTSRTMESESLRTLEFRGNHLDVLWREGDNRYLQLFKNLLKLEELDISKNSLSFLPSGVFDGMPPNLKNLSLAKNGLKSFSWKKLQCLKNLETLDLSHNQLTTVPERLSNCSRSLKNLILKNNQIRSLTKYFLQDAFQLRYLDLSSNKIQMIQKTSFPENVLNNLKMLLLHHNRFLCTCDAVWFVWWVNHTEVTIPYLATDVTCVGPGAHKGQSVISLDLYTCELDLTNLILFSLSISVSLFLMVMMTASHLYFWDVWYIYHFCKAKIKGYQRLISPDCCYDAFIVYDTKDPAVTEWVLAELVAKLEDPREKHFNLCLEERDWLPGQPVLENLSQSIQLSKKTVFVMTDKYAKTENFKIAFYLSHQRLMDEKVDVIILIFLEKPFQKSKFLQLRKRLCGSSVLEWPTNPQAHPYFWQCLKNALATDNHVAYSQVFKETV
# PBMC [7] = experiment: Induction of IL1-beta secretion in human PBMC after 24 hrs by Luminex Multiplex assay; format: functional, cell-based
# PBMC [8] = experiment: Induction of IL2R secretion in human PBMC after 24 hrs by Luminex Multiplex assay; format: functional, cell-based
# PBMC [9] = experiment: Induction of IL10 secretion in human PBMC after 24 hrs by Luminex Multiplex assay; format: functional, cell-based
# Dendritic cell = experiment: Induction of IFNalpha secretion in human plasmacytoid dendritic cells at 200 ug/ml after 24 hrs by Luminex Multiplex assay; format: functional
# spleen [10] = experiment: Induction of cytokine secretion in C57BL/6 mouse spleen cells at 100 ug/ml after 24 hrs by Luminex Multiplex assay; format: functional, cell-based
# spleen [11] = experiment: Induction of chemokine secretion in C57BL/6 mouse spleen cells 100 ug/ml after 24 hrs by Luminex Multiplex assay; format: functional, cell-based
remaining at 10 min [4],Activity [5],Activity [6],SMILES,Activity (PBMC [1]),Activity (PBMC [2]),Activity (PBMC [3]),Activity (PBMC [7]),Activity (PBMC [8]),Activity (PBMC [9]),Activity (Dendritic cell),Activity (spleen [10]),Activity (spleen [11])
56%,Active,inactive,Nc1ccn([C@@H]2O[C@H](COP(O)(=S)O[C@H]3[C@@H](O)[C@H](n4ccc(=O)[nH]c4=O)O[C@@H]3COP(O)(=S)O[C@H]3[C@@H](O)[C@H](n4ccc(=O)[nH]c4=O)O[C@@H]3COP(O)(=S)O[C@H]3[C@@H](O)[C@H](n4ccc(N)nc4=O)O[C@@H]3COP(O)(=S)O[C@H]3[C@@H](O)[C@H](n4cnc5c(=O)[nH]c(N)nc54)O[C@@H]3COP(O)(=S)O[C@H]3[C@@H](O)[C@H](n4ccc(=O)[nH]c4=O)O[C@@H]3COP(O)(=S)O[C@H]3[C@@H](O)[C@H](n4ccc(N)nc4=O)O[C@@H]3COP(O)(=S)O[C@H]3[C@@H](O)[C@H](n4cnc5c(=O)[nH]c(N)nc54)O[C@@H]3COP(O)(=S)O[C@H]3[C@@H](O)[C@H](n4ccc(=O)[nH]c4=O)O[C@@H]3CO)[C@@H](OP(O)(=S)OC[C@H]3O[C@@H](n4ccc(=O)[nH]c4=O)[C@H](O)[C@@H]3OP(O)(=S)OC[C@H]3O[C@@H](n4cnc5c(=O)[nH]c(N)nc54)[C@H](O)[C@@H]3OP(O)(=S)OCC(O)COP(O)(=S)O[C@H]3[C@@H](O)[C@H](n4cnc5c(=O)[nH]c(N)nc54)O[C@@H]3COP(O)(=S)O[C@H]3[C@@H](O)[C@H](n4ccc(=O)[nH]c4=O)O[C@@H]3COP(O)(=S)O[C@H]3[C@@H](O)[C@H](n4ccc(N)nc4=O)O[C@@H]3COP(O)(=S)O[C@H]3[C@@H](O)[C@H](n4ccc(=O)[nH]c4=O)O[C@@H]3COP(O)(=S)O[C@H]3[C@@H](O)[C@H](n4ccc(=O)[nH]c4=O)O[C@@H]3COP(O)(=S)O[C@H]3[C@@H](O)[C@H](n4ccc(N)nc4=O)O[C@@H]3COP(O)(=S)O[C@H]3[C@@H](O)[C@H](n4cnc5c(=O)[nH]c(N)nc54)O[C@@H]3COP(O)(=S)O[C@H]3[C@@H](O)[C@H](n4ccc(=O)[nH]c4=O)O[C@@H]3COP(O)(=S)O[C@H]3[C@@H](O)[C@H](n4ccc(N)nc4=O)O[C@@H]3COP(O)(=S)O[C@H]3[C@@H](O)[C@H](n4cnc5c(=O)[nH]c(N)nc54)O[C@@H]3COP(O)(=S)O[C@H]3[C@@H](O)[C@H](n4ccc(=O)[nH]c4=O)O[C@@H]3CO)[C@H]2O)c(=O)n1 (some centres undefined),Dose-dependent effect,Dose-dependent effect,Dose-dependent effect,Dose-dependent effect,Dose-dependent effect,Dose-dependent effect,–,–,–
–,Active,Active,Nc1ccn([C@@H]2O[C@H](COP(O)(=S)O[C@H]3[C@@H](O)[C@H](n4ccc(=O)[nH]c4=O)O[C@@H]3COP(O)(=S)O[C@H]3[C@@H](O)[C@H](n4ccc(=O)[nH]c4=O)O[C@@H]3COP(O)(=S)O[C@H]3[C@@H](O)[C@H](n4ccc(N)nc4=O)O[C@@H]3COP(O)(=S)O[C@H]3[C@@H](O)[C@H](n4ccc5c(=O)[nH]c(N)nc54)O[C@@H]3COP(O)(=S)O[C@H]3[C@@H](O)[C@H](n4ccc(=O)[nH]c4=O)O[C@@H]3COP(O)(=S)O[C@H]3[C@@H](O)[C@H](n4ccc(N)nc4=O)O[C@@H]3COP(O)(=S)O[C@H]3[C@@H](O)[C@H](n4ccc5c(=O)[nH]c(N)nc54)O[C@@H]3COP(O)(=S)O[C@H]3[C@@H](O)[C@H](n4ccc(=O)[nH]c4=O)O[C@@H]3CO)[C@@H](OP(O)(=S)OC[C@H]3O[C@@H](n4ccc(=O)[nH]c4=O)[C@H](O)[C@@H]3OP(O)(=S)OC[C@H]3O[C@@H](n4ccc5c(=O)[nH]c(N)nc54)[C@H](O)[C@@H]3OP(O)(=S)OCCC(O)CCOP(O)(=S)O[C@H]3[C@@H](O)[C@H](n4ccc5c(=O)[nH]c(N)nc54)O[C@@H]3COP(O)(=S)O[C@H]3[C@@H](O)[C@H](n4ccc(=O)[nH]c4=O)O[C@@H]3COP(O)(=S)O[C@H]3[C@@H](O)[C@H](n4ccc(N)nc4=O)O[C@@H]3COP(O)(=S)O[C@H]3[C@@H](O)[C@H](n4ccc(=O)[nH]c4=O)O[C@@H]3COP(O)(=S)O[C@H]3[C@@H](O)[C@H](n4ccc(=O)[nH]c4=O)O[C@@H]3COP(O)(=S)O[C@H]3[C@@H](O)[C@H](n4ccc(N)nc4=O)O[C@@H]3COP(O)(=S)O[C@H]3[C@@H](O)[C@H](n4ccc5c(=O)[nH]c(N)nc54)O[C@@H]3COP(O)(=S)O[C@H]3[C@@H](O)[C@H](n4ccc(=O)[nH]c4=O)O[C@@H]3COP(O)(=S)O[C@H]3[C@@H](O)[C@H](n4ccc(N)nc4=O)O[C@@H]3COP(O)(=S)O[C@H]3[C@@H](O)[C@H](n4ccc5c(=O)[nH]c(N)nc54)O[C@@H]3COP(O)(=S)O[C@H]3[C@@H](O)[C@H](n4ccc(=O)[nH]c4=O)O[C@@H]3CO)[C@H]2O)c(=O)n1 (some centres undefined),–,–,–,–,–,–,Active,Dose-dependent effect,Dose-dependent effect
